Laboratory results published in ChEMBL document CHEMBL5331133, “Discovery of AZD4747, a Potent and Selective Inhibitor of Mutant GTPase KRASG12C with Demonstrable CNS Penetration” (J Med Chem, 2023).

How the values were obtained:
[1] = Lipophilicity, logD of compound at 7.4; conditions: octanol/water, pH 7.4, logD
[2] = […] stability in rat hepatocyte assessed as intrinsic clearance measured per million of cells; format: ADME, cell-based; conditions: hepatocytes
MDR1 and BCRP = assay: Efflux ratio of apparent permeability in dog MDCK cells transfected with MDR1 and BCRP at 0.1 uM; format: ADME, cell-based, Canis lupus familiaris
[3] = Unbound brain-to-plasma concentration ratio in Wistar Han rat at 2.3 microM/Kg, iv and measured after 4 hrs; format: ADME, organism-based; conditions: read-out: K(p,uu,brain)
[4] = Hepatic extraction ratio in CD-1 mouse at 2.3 microM/Kg, iv; format: ADME; conditions: at 2.3 µmol/kg, read-out: ERH
[5] = Volume of distribution at steady state in CD-1 mouse at 2.3 microM/Kg, iv; format: ADME; conditions: in vivo
[6] = Oral bioavailability in CD-1 mouse at 6.8 microM/Kg; format: ADME, organism-based; conditions: in vivo, at 6.8 µmol/kg
[7] = Observed clearance in Wistar Han rat at 1.1 to 2.3 microM/Kg, iv; format: ADME; conditions: in vivo, dose 1.1-2.3 µM/Kg
[8] = Hepatic extraction ratio in Wistar Han rat at 1.1 to 2.3 microM/Kg, iv; format: ADME; conditions: dose 1.1-2.3 µM/Kg, read-out: ERH
[9] = Volume of distribution at steady state in Wistar Han rat at 1.1 to 2.3 microM/Kg, iv; format: ADME; conditions: in vivo, dose 1.1-2.3 µM/Kg, read-out: Vdss
[10] = Half life in Wistar Han rat at 1.1 to 2.3 microM/Kg, iv; format: ADME; conditions: in vivo, dose 1.1-2.3 µM/Kg
[11] = Oral bioavailability in Wistar Han rat at 2.3 to 6.8 microM/Kg; format: ADME, organism-based; conditions: in vivo, dose 2.3-6.8 µM/Kg
[12] = Observed clearance in Beagle dog at 1.1 microM/Kg, iv; format: ADME, Canis lupus familiaris; conditions: in vivo
[13] = Hepatic extraction ratio in Beagle dog at 1.1 microM/Kg, iv; format: ADME, Canis lupus familiaris; conditions: at 1.1 µmol/kg, read-out: ERH
[14] = Volume of distribution at steady state in Beagle dog at 1.1 microM/Kg, iv; format: ADME, Canis lupus familiaris; conditions: in vivo, read-out: Vdss
[15] = Half life in Beagle dog at 1.1 microM/Kg, iv; format: ADME, Canis lupus familiaris; conditions: in vivo
[16] = Oral bioavailability in Beagle dog at 2.3 microM/Kg; format: ADME, organism-based, Canis lupus familiaris; conditions: in vivo, at 2.3 µmol/kg
[17] = Unbound brain-to-plasma concentration ratio in Wistar Han rat at 2.3 microM/Kg, iv and measured after 1 hrs in presence of pretreatment with elacridar for 0.5 hrs; format: ADME, organism-based; conditions: with elacridar (pretreatment for 0.5 hrs, dose not stated), read-out: K(p,uu,brain)
[18] = Unbound brain-to-plasma concentration ratio in Beagle dog at 170 to 680 microM/Kg, po QD for 15 days and measured 2 hrs last dose; format: ADME, organism-based, Canis lupus familiaris; conditions: dose 170-680 µM/Kg, time 15 day, read-out: K(p,uu,brain)
[19] = Unbound brain-to-plasma concentration ratio in iv dosed Cynomolgus monkey administered as […] compound by HPLC analysis; format: ADME, organism-based, Macaca fascicularis; conditions: read-out: K(p,uu,brain)
[20] = Hepatic blood flow in CD-1 mouse at 2.3 microM/Kg, iv; format: ADME
[21] = Hepatic blood flow in Wistar Han rat at 1.1 to 2.3 microM/Kg, iv; format: ADME; conditions: dose 1.1-2.3 µM/Kg
[22] = Hepatic blood flow in Beagle dog at 1.1 microM/Kg, iv; format: ADME, Canis lupus familiaris
[23] = Drug distribution in iv dosed Cynomolgus monkey brain administered as […] compound and assessed as radioactivity and measured 5 to 123 min post dose by PET imaging analysis; format: ADME, organism-based, Macaca fascicularis; conditions: in vivo, time 5-123 min
NCI-H358 [24] = assay: Antiproliferative activity against human NCI-H358 cells harboring KRAS G12C mutant cultured as 3D spheroids assessed as reduction in cell proliferation incubated for 3 days by CellTiter-Glo 3D reagent based assay; format: functional; conditions: NCI-H358, 72 h
NCI-H358 [25] = assay: Antiproliferative activity against human NCI-H358 cells harboring KRAS G12C mutant cultured as […] assessed as reduction in cell proliferation incubated for 3 days by CellTiter-Glo reagent based assay; format: functional; conditions: NCI-H358, 72 h
A549 = assay: Antiproliferative activity against human A549 cells harboring KRAS G12S mutant cultured as 3D spheroids assessed as reduction in cell proliferation incubated for 3 days by CellTiter-Glo 3D reagent based assay; format: functional; conditions: A549, 72 h
[26] = Inhibition of KRAS/MAPK pathway in human NCI-H358 cells harboring KRAS G12C mutant assessed as decrease in p90RSK phosphorylation incubated for 2 hrs by immunofluorescence assay; format: cell-based; conditions: NCI-H358, 2 h
[27] = Inhibition of KRAS/MAPK pathway in human PC-9 cells harboring wild-type KRAS assessed as decrease in p90RSK phosphorylation incubated for 2 hrs by immunofluorescence assay; format: cell-based; conditions: PC-9, 2 h
[28] = Inhibition of KRAS/MAPK pathway in human Calu-6 cells harboring KRAS Q61K mutant assessed as decrease in p90RSK phosphorylation incubated for 2 hrs by immunofluorescence assay; format: cell-based; conditions: Calu-6, 2 h
[29] = Toxicity in athymic nude mouse xenografted with human NCI-H358 cells harboring KRAS G12C mutant assessed as body weight change at 10 to 100 mg/kg, po for 21 days; format: organism-based; conditions: in vivo, 504 h, dose 10-100 mg/kg, time 21 day
[30] = Free drug concentration in athymic nude mouse plasma xenografted with human NCI-H358 cells harboring KRAS G12C mutant at 30 to 100 mg/kg, po and measured upto 24 hrs; format: ADME, organism-based; conditions: in vivo, dose 30-100 mg/kg
GTPase KRas = GTPase KRas (Homo sapiens, UniProt P01116, G12C)
Mus musculus [31] = species: Mus musculus; conditions: dose 10-30 mg/kg, route po, time 3.0 hrs
Mus musculus [32] = species: Mus musculus; conditions: dose 10-30 mg/kg, route po, time 6.0 hrs
in vitro = conditions: human, liver microsomes, CLH
Description: Microsomal stability in human liver microsomes assessed as intrinsic clearance

Chain of GTPase KRas (P01116 whole entry G12C): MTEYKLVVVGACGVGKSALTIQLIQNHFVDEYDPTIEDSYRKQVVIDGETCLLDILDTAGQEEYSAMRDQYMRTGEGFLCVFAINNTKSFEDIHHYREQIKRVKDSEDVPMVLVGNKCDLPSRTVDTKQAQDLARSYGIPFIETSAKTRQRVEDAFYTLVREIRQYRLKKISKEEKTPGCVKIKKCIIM

logD [1]: 2.9 | CLH [2]: 34 µL/min | efflux ratio at 0.1 µM (MDR1 and BCRP): 1.1 | Kp uu at 4 h [3]: 0.11 | hepatic extraction ratio [4]: 0.52 | Vdss [5]: 2.9 L/kg | bioavailability [6]: 58% | clearance [7]: 54 mL/min/kg | hepatic extraction ratio [8]: 0.75 | Vd [9]: 1.7 L/kg | half-life [10]: 0.56 h | bioavailability [11]: 18% | clearance [12]: 10 mL/min/kg | hepatic extraction ratio [13]: 0.19 | Vd [14]: 1.2 L/kg | half-life [15]: 1.7 h | bioavailability [16]: 63% | Kp uu at 1 h [17]: 1 | Kp uu at 360 h [18]: 0.7 | Kp uu [19]: 1.6 | QH [20]: 152 mL/min/kg | QH [21]: 72 mL/min/kg | QH [22]: 55 mL/min/kg | Drug uptake [23]: Active | IC50 (NCI-H358 [24]): 12 nM | IC50 (NCI-H358 [25]): 360 nM | IC50 (A549): 23300 nM | IC50 [26]: 65 nM | IC50 [27]: > 30000 nM | IC50 [28]: > 30000 nM | Cp(f) [30]: 40 nM | IC50 (GTPase KRas): 15 nM | microsomal CLint (in vitro): 15 µL/min/mg
SMILES: C=CC(=O)N1CCN2Cc3cc(C#CC)c(-c4c(O)cccc4Cl)c(F)c3OC[C@H]2C1
Activity [29]: Non-Toxic | inhibition (Mus musculus [31]): Dose-Dependent Effect | inhibition (Mus musculus [32]): Dose-Dependent Effect
